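Five compound concentrations were applied to cells in 96-well plates for 48 hours; endpoints were derived by simple linear interpolation of the resulting dose-response curve. GI50 marks 50% less growth. Definition used: TGI = concentration required for complete inhibition of growth.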
What was measured:
Experiment in all cases: DTP human tumour cell line panel, 48 h
[1] = tested on: LOX IMVI melanoma
[2] = tested on: NCI-H23 lung
[3] = tested on: OVCAR-4 ovarian
[4] = tested on: SK-MEL-28 melanoma
[5] = tested on: COLO 205 colon
[6] = tested on: UO-31 renal
[7] = tested on: UACC-62 melanoma
[8] = tested on: SK-MEL-2 melanoma
[9] = tested on: RPMI-8226 leukemia
[10] = tested on: NCI-H226 lung
[11] = tested on: HS 578T breast
[12] = tested on: U251 CNS
[13] = tested on: RXF 393 renal
[14] = tested on: SN12C renal
[15] = tested on: EKVX NSCLC
[16] = tested on: K-562 leukemia
[17] = tested on: SR leukemia
[18] = tested on: SNB-19 CNS
[19] = tested on: ACHN renal
[20] = tested on: DU-145 prostate
[21] = tested on: MOLT-4 leukemia
[22] = tested on: HT29 colon
[23] = tested on: PC-3 prostate
[24] = tested on: CCRF-CEM leukemia
[25] = tested on: MCF7 breast
[26] = tested on: M14 melanoma
[27] = tested on: NCI-H460 lung
[28] = tested on: NCI/ADR-RES ovarian
[29] = tested on: CAKI-1 renal
[30] = tested on: KM12 colon
[31] = tested on: 786-0 renal
[32] = tested on: HOP-62 NSCLC
[33] = tested on: SK-MEL-5 melanoma
[34] = tested on: MDA-MB-435
[35] = tested on: SW-620 colon
[36] = tested on: HCT-15 colon
[37] = tested on: A549 NSCLC
[38] = tested on: T-47D breast
[39] = tested on: TK-10 renal
[40] = tested on: MALME-3M melanoma
[41] = tested on: SF-295 CNS
[42] = tested on: NCI-H522 lung
[43] = tested on: OVCAR-8 ovarian
[44] = tested on: SK-OV-3 ovarian
[45] = tested on: SF-268 CNS
[46] = tested on: OVCAR-3 ovarian
[47] = tested on: OVCAR-5 ovarian
[48] = tested on: HCT-116 colon
[49] = tested on: BT-549 breast

O=C1C(Nc2cccc(O)c2)=C(Sc2ccccc2)C(=O)N1Cc1ccccc1
GI50 [1]: 13 µM
TGI [1]: 39.4 µM
GI50 [2]: 11.4 µM
TGI [2]: 27.8 µM
GI50 [3]: 5.33 µM
TGI [3]: 49.6 µM
GI50 [4]: 11.8 µM
TGI [4]: 26.1 µM
GI50 [5]: 17 µM
TGI [5]: 35.9 µM
GI50 [6]: 4.98 µM
TGI [6]: 18 µM
GI50 [7]: 5.3 µM
TGI [7]: 18.9 µM
GI50 [8]: 11.4 µM
TGI [8]: 26.7 µM
GI50 [9]: 1.36 µM
TGI [9]: 4.07 µM
GI50 [10]: 2.55 µM
TGI [10]: 22 µM
GI50 [11]: 11.5 µM
TGI [11]: 43.8 µM
GI50 [12]: 13 µM
TGI [12]: 35.4 µM
GI50 [13]: 5.07 µM
TGI [13]: 25.6 µM
GI50 [14]: 13 µM
TGI [14]: 29.6 µM
GI50 [15]: 10.1 µM
TGI [15]: 28.5 µM
GI50 [16]: 3.71 µM
TGI [16]: 17.1 µM
GI50 [17]: 4.74 µM
TGI [17]: 21.2 µM
GI50 [18]: 13 µM
TGI [18]: 27 µM
GI50 [19]: 12.6 µM
TGI [19]: 31.6 µM
GI50 [20]: 16.2 µM
TGI [20]: 33.3 µM
GI50 [21]: 2.78 µM
TGI [21]: 12.3 µM
GI50 [22]: 14.3 µM
TGI [22]: 29.8 µM
GI50 [23]: 2.15 µM
TGI [23]: 14.3 µM
GI50 [24]: 1.88 µM
TGI [24]: 10.1 µM
GI50 [25]: 6.87 µM
TGI [25]: 22.8 µM
GI50 [26]: 5.35 µM
TGI [26]: 19.5 µM
GI50 [27]: 11.3 µM
TGI [27]: 29 µM
GI50 [28]: 11.5 µM
TGI [28]: 31.9 µM
GI50 [29]: 21.6 µM
TGI [29]: 55.2 µM
GI50 [30]: 14 µM
TGI [30]: 28.8 µM
GI50 [31]: 20.7 µM
TGI [31]: 39.4 µM
GI50 [32]: 14.8 µM
TGI [32]: 28.8 µM
GI50 [33]: 2.37 µM
TGI [33]: 17 µM
GI50 [34]: 11.1 µM
TGI [34]: 27.4 µM
GI50 [35]: 14.2 µM
TGI [35]: 33.4 µM
GI50 [36]: 12.4 µM
TGI [36]: 38.8 µM
GI50 [37]: 3.81 µM
TGI [37]: 15.9 µM
GI50 [38]: 1.84 µM
TGI [38]: 19.9 µM
TGI [39]: 16.8 µM
GI50 [40]: 1.74 µM
TGI [40]: 9.97 µM
GI50 [41]: 13.5 µM
TGI [41]: 50.2 µM
GI50 [42]: 5.75 µM
TGI [42]: 23.9 µM
GI50 [43]: 11.9 µM
TGI [43]: 26.9 µM
GI50 [44]: 16.4 µM
TGI [44]: 35.3 µM
GI50 [45]: 10.5 µM
TGI [45]: 26.8 µM
GI50 [46]: 4.83 µM
TGI [46]: 19.9 µM
GI50 [47]: 18.2 µM
TGI [47]: 34.1 µM
GI50 [48]: 9.87 µM
TGI [48]: 21.5 µM
GI50 [49]: 11.2 µM
TGI [49]: 43.5 µM

Reference: PubChem BioAssay (NCI)
